Data from patent publication US20240325398A1, “COMBINATION THERAPIES” (Infinity Pharmaceuticals, Inc., priority 2014, published 2024).

Key:
HH = experiment: Combination study, ATPLite 72 h, dose matrix (Synergy Score, CI50); type: cell-based; conditions: combination with Compound 1
Experimental: The method is described as follows.
Additive effect is CI=1.0. […] Antagonistic effect is CI>1.0.
The Synergy Score is calculated as: […]

HBL-1 = experiment: as above; conditions: combination with Compound 1, 72 h
OCI-Ly3 = experiment: as above; conditions: combination with Compound 1; OCI-Ly3; 72 h
U-2932 = experiment: as above; conditions: combination with Compound 1, 72 h
TMD8 = experiment: as above; conditions: combination with Compound 1; TMD8; 72 h
OCI-Ly7 = experiment: as above; conditions: combination with Compound 1, 72 h
SU-DHL-4-epst = experiment: as above; conditions: combination with Compound 1, 72 h
DOHH-2 = experiment: as above; conditions: combination with Compound 1, 72 h
Farage = experiment: as above; conditions: combination with Compound 1; Farage; 72 h
Experimental: (§1) Cells are thawed from a liquid nitrogen preserved state. Once cells have been expanded and divide at their expected doubling times, screening begins. Cells are seeded in growth media in either black 1536-well or 384-well tissue culture treated plates. Cells are then equilibrated in assay plates via centrifugation and placed in incubators attached to the Dosing Modules at 37° C. for 24 hours before treatment. […] These Tzero (To) plates are read using ultra-sensitive luminescence on Envision plate readers (Perkin Elmer). Treated assay plates are incubated with compound for 72 hours. After 72 hours, plates are developed for endpoint analysis using ATPLite. All data points are collected via automated processes, quality controlled and analyzed using Zalicus software.
(§2) where T is treated cell count and V is untreated (vehicle) cell count (at 72 hours). I ranges from 0% (when T=V) to 100% (when T=0). […] The measure of effect in the experiment can be the inhibition of cellular response relative to the untreated level (vehicle alone). […] The inhibition ranges from 0% at the untreated level to 100% when T=0. Inhibition levels are negative for agents that actually increase levels. Other effect measures, such as an activity ratio r=T/V may be more appropriate for some assays. When activity ratios (e.g, fold increase over stimulated control) are being used, the effect can be measured using an induction 1=ln(T/V). With this definition, all effect expressions are the same as for inhibition.
(§3) Growth Inhibition (GI) is used as a measure of cell viability. […] A GI reading of 100% represents complete growth inhibition—T72 compound-treated and T0 vehicle signals are matched. […] A GI reading of 200% represents complete death of all cells in the culture well. Compounds reaching an activity plateau of GI 200% are considered cytotoxic. GI is calculated by applying the following test and equation:
(§4) Combination analysis data were collected in a 6×6 dose matrix. Synergy is calculated by comparing a combination's response to those of its single compound, against the drug-with-itself dose-additive reference model. Deviations from dose additivity may be assessed visually on an isobologram or numerically with a Combination Index (CI). […] Additive effect is CI=1.0. […] Antagonistic effect is CI>1.0.
The isobologram was drawn by identifying the locus of concentrations that correspond to crossing the indicated inhibition level. This is done by finding the crossing point for each single agent concentration in a dose matrix across the concentrations of the other single agent. Practically, each vertical concentration CY is held fixed while a bisection algorithm is used to identify the horizontal concentration CX in combination with that vertical dose that gives the chosen effect level in the response surface Z(CX,CY). These concentrations are then connected by linear interpolation to generate the isobologram display. For synergistic interactions, the isobologram contour fall below the additivity threshold and approaches the origin, and an antagonistic interaction would lie above the additivity threshold. The error bars represent the uncertainty arising from the individual data points used to generate the isobologram. The uncertainty for each crossing point is estimated from the response errors using bisection to find the concentrations where Z−αZ(CX,CY) and Z+σZ(CX,CY) cross Icut, where αZ is the standard deviation of the residual error on the effect scale.
(§5) To measure combination effects in excess of Loewe additivity, a scalar measure to characterize the strength of synergistic interaction termed the Synergy Score is devised. The Synergy Score is calculated as:
The fractional inhibition for each component agent and combination point in the matrix is calculated relative to the median of all vehicle-treated control wells.

SU-DHL-10-epst = experiment: as above; conditions: combination with Compound 1, 72 h
RL = experiment: as above; conditions: combination with Compound 1, 72 h
Experimental: as §1, §2, §3, §4, §5
(§6) The fractional inhibition for each component agent and combination point in the matrix is calculated relative to the median of all vehicle-treated control wells. The Synergy Score equation integrates the experimentally-observed activity volume at each point in the matrix in excess of a model surface numerically derived from the activity of the component agents using the Loewe model for additivity. Additional terms in the Synergy Score equation (above) are used to normalize for various dilution factors used for individual agents and to allow for comparison of synergy scores across an entire experiment. The inclusion of positive inhibition gating or an Idata multiplier removes noise near the zero effect level, and biases results for synergistic interactions at that occur at high activity levels.
(§7) Loewe Volume (Loewe Vol) is used to assess the overall magnitude of the combination interaction in excess of the Loewe additivity model. Loewe Volume is particularly useful when distinguishing synergistic increases in a phenotypic activity (positive Loewe Volume) versus synergistic antagonisms (negative Loewe Volume). […] This model defines additivity as a non-synergistic combination interaction where the combination dose matrix surface should be indistinguishable from either drug crossed with itself.

KARPAS-422 = experiment: as above; conditions: combination with Compound 1, 72 h
Experimental: as §1, §2, §3, §4, §5, §6, §7

WSU-NHL = experiment: as above; conditions: combination with Compound 1, 72 h
Experimental: as §1, §2, §3, §4, §5, §6, §7

KARPAS-299 = experiment: as above; conditions: combination with Compound 1
GRANTA-519 = experiment: as above; conditions: combination with Compound 1
Experimental: as §1, §2, §3, §4, §5, §6, §7

Jeko-1 = experiment: as above; conditions: combination with Compound 1
Experimental: as §1, §2, §3, §4, §5, §6, §7

Mino = experiment: as above; conditions: combination with Compound 1
NCI-H929 = experiment: as above; conditions: combination with Compound 1
[1] = as above; conditions: combination with Compound 1; OPM-2
Experimental: as §1, §2, §3, §4, §5, §6, §7

OMP-2 = experiment: as above; conditions: combination with Compound 1; OPM-2
Experimental: as §1, §2, §3, §4, §5, §6, §7

RPMI-8226 = experiment: as above; conditions: combination with Compound 1
Experimental: as §1, §2, §3, §4, §5, §6, §7

Nc1cccc2c1CN(C1CCC(=O)NC1=O)C2=O (stereo not drawn) [lenalidomide, 3-(4-Amino-1-oxo 1,3-dihydro-2H-isoindol-2-yl)piperidine-2,6-dione]
U (U=0.7 to <1): CI50 growth inhibition (U-2932)
A2 (A2=1 to <3): Synergy Score growth inhibition (HH) | Synergy Score growth inhibition (SU-DHL-4-epst) | Synergy Score inhibition (DOHH-2) | Synergy Score growth inhibition (Farage) | Synergy Score growth inhibition (SU-DHL-10-epst) | Synergy Score inhibition (SU-DHL-10-epst) | Synergy Score growth inhibition (KARPAS-422) | Synergy Score inhibition (KARPAS-422) | Synergy Score inhibition (WSU-NHL) | Synergy Score growth inhibition (Jeko-1) | Synergy Score inhibition (Jeko-1) | Synergy Score growth inhibition (Mino) | Synergy Score growth inhibition (OMP-2)
A3 (A3=>3): Synergy Score growth inhibition (TMD8) | Synergy Score inhibition (TMD8) | Synergy Score growth inhibition (DOHH-2) | Synergy Score growth inhibition (WSU-NHL) | Synergy Score growth inhibition (NCI-H929) | Synergy Score inhibition (NCI-H929)
T (T=0.5 to <0.7): CI50 inhibition (HH) | CI50 inhibition (SU-DHL-4-epst) | CI50 growth inhibition (SU-DHL-10-epst) | CI50 inhibition (SU-DHL-10-epst) | CI50 growth inhibition (WSU-NHL) | CI50 inhibition (Jeko-1) | CI50 growth inhibition (Mino) | CI50 growth inhibition (NCI-H929)
A1 (A1=0.0001 to <1): Synergy Score inhibition (HH) | Synergy Score growth inhibition (HBL-1) | Synergy Score inhibition (HBL-1) | Synergy Score growth inhibition (OCI-Ly3) | Synergy Score inhibition (OCI-Ly3) | Synergy Score growth inhibition (U-2932) | Synergy Score inhibition (U-2932) | Synergy Score growth inhibition (OCI-Ly7) | Synergy Score inhibition (OCI-Ly7) | Synergy Score inhibition (SU-DHL-4-epst) | Synergy Score inhibition (Farage) | Synergy Score growth inhibition (RL) | Synergy Score inhibition (RL) | Synergy Score growth inhibition (KARPAS-299) | Synergy Score inhibition (KARPAS-299) | Synergy Score growth inhibition (GRANTA-519) | Synergy Score inhibition (GRANTA-519) | Synergy Score inhibition (Mino) | Synergy Score inhibition (OMP-2) | Synergy Score growth inhibition (RPMI-8226) | Synergy Score inhibition (RPMI-8226)
S (S=0.01 to <0.5): CI50 growth inhibition (TMD8) | CI50 inhibition (TMD8) | CI50 growth inhibition (DOHH-2) | CI50 inhibition (DOHH-2) | CI50 growth inhibition (KARPAS-422) | CI50 inhibition (KARPAS-422) | CI50 inhibition (WSU-NHL) | CI50 growth inhibition (Jeko-1) | CI50 inhibition (NCI-H929) | CI50 growth inhibition [1]
W (W=≥1): CI50 growth inhibition (HH) | CI50 growth inhibition (HBL-1) | CI50 growth inhibition (OCI-Ly3) | CI50 growth inhibition (SU-DHL-4-epst) | CI50 growth inhibition (Farage) | CI50 inhibition (Farage) | CI50 inhibition (Mino)
